Target: T1, Progesterone receptor (Homo sapiens, UniProt P06401)
T1 sequence (P06401 whole entry): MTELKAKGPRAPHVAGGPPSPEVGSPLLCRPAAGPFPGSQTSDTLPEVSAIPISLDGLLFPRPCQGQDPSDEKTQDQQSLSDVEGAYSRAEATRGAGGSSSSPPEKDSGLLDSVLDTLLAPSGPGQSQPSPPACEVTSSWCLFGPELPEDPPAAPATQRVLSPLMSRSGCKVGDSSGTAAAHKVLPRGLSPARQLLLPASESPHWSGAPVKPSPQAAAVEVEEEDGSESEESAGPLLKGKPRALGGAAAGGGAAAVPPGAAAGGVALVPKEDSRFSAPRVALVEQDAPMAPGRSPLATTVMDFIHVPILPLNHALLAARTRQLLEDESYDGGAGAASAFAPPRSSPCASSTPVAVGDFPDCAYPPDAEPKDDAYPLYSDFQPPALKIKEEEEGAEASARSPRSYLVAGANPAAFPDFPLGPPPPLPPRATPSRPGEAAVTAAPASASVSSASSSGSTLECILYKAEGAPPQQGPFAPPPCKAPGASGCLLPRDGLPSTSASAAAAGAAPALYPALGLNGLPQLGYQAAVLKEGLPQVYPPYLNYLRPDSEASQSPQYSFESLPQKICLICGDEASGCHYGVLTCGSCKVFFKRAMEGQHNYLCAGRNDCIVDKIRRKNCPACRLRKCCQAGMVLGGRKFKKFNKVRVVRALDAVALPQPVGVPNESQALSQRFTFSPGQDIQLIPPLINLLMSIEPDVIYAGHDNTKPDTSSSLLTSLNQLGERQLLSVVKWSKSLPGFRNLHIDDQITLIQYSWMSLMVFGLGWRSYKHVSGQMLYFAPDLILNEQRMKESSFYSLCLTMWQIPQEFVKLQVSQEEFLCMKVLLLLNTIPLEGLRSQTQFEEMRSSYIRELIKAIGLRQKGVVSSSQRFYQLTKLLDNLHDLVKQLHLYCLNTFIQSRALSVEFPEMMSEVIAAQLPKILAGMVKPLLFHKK
Test: Binding affinity against Progesterone receptor in human TE85 osteosarcoma cells was determined using (Z)-[125I]-17-alpha-(2-iodovinyl)-19-nor-testosterone as radioligand

Compound	IC50
O=C(c1ccc(Cl)c(Cl)c1)N1CC=CC(c2ccccc2)=N1	> 1000 nM
Clc1ccc(CN2CCCC(c3ccccc3)=N2)cc1Cl	> 1000 nM
CCCCc1ccc(C2=NN(C(=O)c3ccc(Cl)c(Cl)c3)CCC2)cc1	> 1000 nM
CC(C)(C)c1ccc(C(=O)N2CCCC(c3ccccc3)=N2)cc1	> 1000 nM
O=C1CCC(c2ccccc2)=NN1Cc1ccc(Cl)c(Cl)c1	170 nM
Cc1ccc(C(=O)N2CCCC(c3ccccc3)=N2)cc1	416 nM
O=S(=O)(c1ccc(Cl)c(Cl)c1)N1CCCC(c2ccccc2)=N1	> 1000 nM
COc1ccc(C(=O)N2CCCC(c3ccccc3)=N2)cc1	> 1000 nM
O=C(c1ccccc1)N1CCCC(c2ccccc2)=N1	> 1000 nM
O=C(c1ccc(Br)cc1)N1CCCC(c2ccccc2)=N1	> 1000 nM

Further lines, results first:

IC50	Compound
84 nM	O=C(c1ccc(Cl)c(Cl)c1)N1CCCC(c2ccc(Cl)cc2)=N1
24 nM	CC1CCN(C(=O)c2ccc(Cl)c(Cl)c2)N=C1c1ccccc1 (centres undefined)
48.2 nM	O=C(c1ccc(Cl)c(Cl)c1)N1CCCC(c2ccc(F)cc2)=N1
515 nM	O=C(c1ccc(F)c(F)c1)N1CCCC(c2ccccc2)=N1
270 nM	O=C(c1ccc(Cl)c(C(F)(F)F)c1)N1CCCC(c2ccccc2)=N1
17.5 nM	S=C(c1ccc(Cl)c(Cl)c1)N1CCCC(c2ccccc2)=N1
> 1000 nM	COc1ccc(C2=NN(C(=O)c3ccc(Cl)c(Cl)c3)CCC2)cc1
521 nM	O=C(c1ccc(Cl)cc1)N1CCCC(c2ccccc2)=N1
62.4 nM	O=C(c1ccc(Cl)c(Cl)c1)N1CCCC(c2ccccc2)=N1
98 nM	CC1CC(c2ccccc2)=NN(C(=O)c2ccc(Cl)c(Cl)c2)C1 (centres undefined)
38.2 nM	O=C(c1ccc(F)c(Br)c1)N1CCCC(c2ccccc2)=N1
75.3 nM	CC1(C)CC(c2ccccc2)=NN(C(=O)c2ccc(Cl)c(Cl)c2)C1
70.6 nM	O=C(c1cccc(Cl)c1)N1CCCC(c2ccccc2)=N1
570 nM	CCc1ccc(C2=NN(C(=O)c3ccc(Cl)c(Cl)c3)CCC2)cc1

Source: ChEMBL document CHEMBL1128701 (J Med Chem, 1995)
